Results taken from PMC7385626 (Scientific Reports, 2020).

Tests used:
[1] = test system: HeLa, HT29, C6 and Vero cells; assay: BrdU Cell Proliferation Assay, range over the cell lines; assay type: cell-based
Description: The antiproliferative activities of Ag(I) molecules and the starting molecules of the parent molecules, N-bishydeten and [Ag(CN)2]^− compound, on cells, were monitored utilizing by the BrdU Cell Proliferation Assay (BCPA) (Fig. 6).
The antiproliferative activity of the 2, 3, 4, [Ag(CN)2]^− and 5FU against various cell lines (HeLa ATCC CCL-2, C6 cells ATCC CCL-107, HT29 ATCC HTB-38, and Vero ATCC CCL-81) were preserved and maintained in Dulbecco’s modified eagle’s medium, supplemented with %2 antibiotic (Streptomycin-Penicillin) solution and 10% fetal bovine serum.
The cell suspension including 5×10^3 cells in 100 µL was supplied into the well cell plates (96-well cell). The therapies of these cells with 2, 3, 4 and [Ag(CN)2]^− in DMSO (max 0.1% DMSO) and 5-Florouracil (5 FU) molecule in DMSO (max 0.1% DMSO) separately at concentration 0.25, 0.50, 1.00, 1.50, 2.00, 2.50, 3.75, and 5.00 µg/mL were carried out. The last volume was adapted to 200 µL by mixture and DMEM and also incubated for 24 h at 37°C with 5% CO2. The antiproliferative activities of the 2, 3, 4 and [Ag(CN)2]^− were determined with using BrdU Cell proliferation ELISA Kit conforming to manufacturer’s assay.
IC50 values the concentration of a factor which required for other method of in vitro.

HeLa cells = assay: Cell migration assay; assay type: cell-based
Description: Ag(I) compounds at 30% maximal inhibitory concentration (IC30) managed to inhibit tumor cell migration with low cytotoxicity (data not shown). In addition, this cytotoxic ability of Ag(I) compounds at 20% maximal inhibitory concentration (IC20) allowed the suppression of cell migration without damaging the cell membrane at non-toxic concentrations (data not shown). […] While untreated HeLa cells filled 100% of the gap, compounds 2, 3, and 4 managed to spread to 9%, %11, 15% of the gap, respectively (Figure S16; Supplementary Material, Day 2). In addition, the media with Ag(I) compounds were replaced with fresh media following the 72-h incubation, but the HeLa cells could not fill the gap (data not shown). […]. The result was consistent with that of the other studies on Ag(I) complexes containing different ligands[73],[74],[78],[80],[81],[83]–[87].
The migration feature of the 2, 3 and 4 was monitored using the cell migration method. Briefly, an equal number of HeLa cells (3.5 × 10^4 HeLa cells) were seeded into the two reservoirs separated by a 500 µm thick wall and allowed to grow to 90–95 % confluence. […]. The closure of the gap by the cells was photographed 0, 1 and 2 days after incubation by using a phase contrast inverted microscope.
Fig. S16. Effect of 2, 3 and 4 on the migration of HeLa cell line. […]

HT29 cells = assay: TUNEL assay; assay type: cell-based, human
Protocol: […]. We have evaluated the apoptotic effect of the molecules on HT29 cells utilizing the TUNEL method as an immunohistological study to reveal their mechanism of action on cells. The apoptotic activity of the Ag(I) compounds was examined in human colon cancer cells, HT29. […]. […] […].
Figure 8 Phase-contrast and Fluorescence and image of the HT29 cancer cell line examined by TUNEL assay. […].
In situ finding of apoptosis was conducted utilizing a TUNEL method kit conforming to the manufacturer’s mechanism. HT29 cells (30.000 cells/chamber slide section) were conveyed in poly-L-lysine covered chamber slide. […]. Finally, slide was gently washed with cold DPBS and added 4 % paraformaldehyde for fixation for 60 min at room temperature. Following incubation, the cells were blocked with freshly prepared 3 % H2O2 in methanol at room temperature. Then, the cells were exposed to permeabilized solution (0.1 % sodium citrate and 0.1 % Triton X-100) for 2 minutes on ice. At this stage in order to prepare a DNase I enzyme treated as positive control, 10 μl of DNase-I and 90 μl its buffer was added to slide and incubated at room temperature for 10 minutes. The compotent cell was transferred into TUNEL reaction mixture (50 μL/section) involving a TdT and fluorescein-dUTP mix for 1 h at 37 °C, in a humidified phase and protected from light. In the end of the process, the positive cell nuclei obtained a green fluorescent signal which visualized by a Leica fluorescent microscope.

S. aureus ATCC29213 = assay: Disc diffusion assay; assay type: cell-based, Staphylococcus aureus
Protocol: (§1) Therefore, the pathogen bacterial flora and the opportunistic agents may be taken into consideration both in the management of cancer patients and in individual susceptibility to cancer. Indeed, dual acting factors with antimicrobial and antiproliferative potentials can result in improved therapeutic efficacy for cancer cell patients or reduced cancer predisposition. […]. In this study, 10 microbial cultures of this part, belonging to ten types of bacterial were used. The culture was grown in Mueller–Hinton Broth (Merck) for all the bacterial strains at 36 °C. Antimicrobial test was carried out by using disc-diffusion assay utilizing 100 µL of suspension with 10^8 CFU/mL of bacteria and 10^6 CFU/mL of yeast spread on Nutrient Agar and Potato Dextrose Agar, respectively. Also, the blank disc (Oxoid = 6 mm in diameter) was impregnated with 20 µL of each substance (105 µg/disc) and placed on the inoculated agar. Negative controls ([…]) were prepared using the same solvent (water) employed to dissolve each substance. […]. The inoculated plate was incubated at 36 °C for clinical bacterial strains. Antimicrobial activities were evaluated by obtaining the zone of inhibitory effect against the test organisms.

St. pyogenez ATCC176 = assay: Disc diffusion assay; assay type: cell-based, Steptococcus Pyogerez
Protocol: as §1

P. aeruginosa ATCC9027 = assay: Disc diffusion assay; assay type: cell-based, Pseudomonas Aureginosa
Protocol: as §1

S. enteridis ATCC13076 = assay: Disc diffusion assay; assay type: cell-based, Salmonella Enteritidis
Protocol: as §1

Substance	IC50 [1] [nM]	part of the gap filled by HeLa cells (migration) (HeLa cells) [%]	apoptosis by TUNEL (HT29 cells)	inhibition zones, S. aureus ATCC29213 (S. aureus ATCC29213) [mm]	inhibition zones, St. pyogenez ATCC176 (St. pyogenez ATCC176) [mm]	inhibition zones, P. aeruginosa ATCC9027 (P. aeruginosa ATCC9027) [mm]	inhibition zones, S. enteridis ATCC13076 (S. enteridis ATCC13076) [mm]
[Cd(N-bishydeten)]4[Ag(CN)2]8[Ag(CN)]2 [Complex 4]	480 to 630	15	significantly triggered apoptosis	30 ± 1.0	26 ± 0.0	30 ± 0.58	36 ± 1.0
[Cu(N-bishydeten)Ag3(CN)5] [Complex 2]	870 to 3640	9	significantly triggered apoptosis	37 ± 1.0	32 ± 0.58	30 ± 1.0	30 ± 0.58
[Zn(N-bishydeten)Ag3(CN)5] [Complex 3]	2370 to 3340	11	significantly triggered apoptosis	25 ± 0.58	29 ± 0.58	30 ± 1.0	33 ± 0.58
